Assays:
[1] = system: Gag-Tsg101 co-localization on the plasma membrane; assay: Gag-Tsg101 co-localization by fluorescence microscopy, Pearson's coefficient; assay type: cell-based
Experimental: FIG. 19A-F. N16 (50 μM) prevents co-localization of Gag and Tsg101 on the plasma membrane. A-E) Fluorescence microscopy images of cells that co-express Tsg101-Myc alone or GagWT-GFP and Tsg101-Myc. Cells grown on coverslips were co-transfected with DNA encoding Tsg101-Myc (A) or Tsg101-Myc and GagWT-GFP (B, D and E) or GagP7L-GFP (C) and treated with F15 (D) or N16 (E). After 24 hr the coverslips were processed for microscopy with Tsg101-Myc detected with anti-Myc antibody and Texas Red secondary antibody as described in Materials & Methods. A) Tsg101-Myc in cells treated with DMSO carrier (top) or N16 (bottom). B-E), Top panels, show signal from Gag-GFP; middle panels, images showing Tsg101-Myc signal; bottom panels, merged images showing signals from Gag-GFP and Tsg101-Myc. Boxes frame a region of the plasma membrane. F) Pearson's coefficient of correlation values determined for the images shown. Error bars indicate the highest values obtained for similar samples. n=6.
FIG. 26A-D. N16 binds covalently to C73 in the Tsg101 UEV domain. A) Activation of N16 to reactive sulfenamide. N16 (i) is converted to intermediates sulfenic acid (ii) and sulfenamide (iii) through acid catalysis to yield a covalently attached N16-Tsg101 UEV complex (iv). B) HNCACB Cβ regions for residues C73, L74, 186 and C87 of Tsg101 without (−) and with (+) N16. C) Examination by fluorescence microscopy of cells co-expressing GagWT-GFP and Tsg101WT-Myc, Tsg101C73A-Myc or Tsg101C87A-Myc in the absence and presence of 50 μM N16. n=3 D) Pearson's coefficient of correlation values.
Hela cells grown on cover slips were transfected with pCMV-Gag-EGFP alone or together with pLLEXP1-hTsg101-myc. Cells were fixed in 4% formaldehyde (Sigma) and permeabilized in 0.1% Triton X-100. Tsg101 was detected in the samples by indirect immunofluorescence using anti-myc Mab and Texas Red anti-mouse IgG. Nuclei were stained with Hoechst. Images were captured on an inverted fluorescence/differential-interference contrast (dic) Zeiss Axiovert 200M deconvolving fluorescence microscope operated by AxioVision Version 4.5 (Zeiss) software and deconvolved by using the constrained iterative method (AxioVision). Protein co-localization was assessed in 40 or more cells by determination of Pearson's coefficient of correlation using Image J software and regarded as significant when a value of 0.6 or higher (equivalent to a 95% level of confidence for that number of cells) was observed (Manders, E. M. M., et al. (1993)).

[2] = system: HIV-1 NL4-3 P7L; assay: Electron microscopy of budding morphologies, WT- or P7L-NL4-3; assay type: cell-based; details: 50 μM N16
Experimental: FIG. 15A-D. N16 inhibits HIV-1 NL4-3 and Gag VLP production. A) Effect on virus production. Virus particles from N16-treated 293T cells transfected with pNL4-3 as determined by ELISA assay. Top, The compound was added 6 hr prior to DNA transfection and tissue culture media was harvested 24 hr later. Bottom, The compound was added at the indicated concentration 24 hr after DNA transfection and tissue culture media was harvested 24 hr later. Assay values were normalized to that of the DMSO carrier control. B) Effect on virus infectivity. Infectious viral particles per ng p24 as determined by MAGI assay. C) Left, Electron microscopy of particles at cell surface at 24 hr post-N16 addition; Right, Quantitative analysis of budding morphologies. Cells expressing WT- or P7L-NL4-3 were exposed to DMSO carrier or 50 μM N16. Arrows indicate emerging ‘Early’ buds. D) Effects on Gag VLP production. Top, Western blot analysis. Cells treated at the indicated concentration were transfected with DNA encoding Gag-HA. […] Bottom, Quantitative analysis. […]
Electron microscopy was used to identify the event arrested by N16 treatment. […] Treatment of P7L with N16 blocked the residual particle release that the mutation permits (mediated by Alix, an ESCRT adaptor, Fujii, K. et al. (2009)) and shifted the predominant form detected from ‘Tethered’ to ‘Early’.

SMILES | reduction of intensity of Gag-Tsg101 co-localization signal [1] [fold] | co-localization of Gag and Tsg101C73A-myc ([1]; 50 μM N16) | co-localization of Gag and Tsg101C87A-myc ([1]; 50 μM N16) | residual particle release of P7L [2]
COc1ccc2nc([S@@+]([O-])Cc3ncc(C)c(OC)c3C)[nH]c2c1 [F15, esomeprazole] | ~2 |  |  | 
COc1ccc2[nH]c([S+]([O-])Cc3ncc(C)c(OC)c3C)nc2n1 (centres unmarked) [N16, tenatoprazole] | ~2 | failed to prevent co-localization | effectively eliminated co-localization | blocked
